{
  "source": "patent US12036212B2",
  "about": "“Enhancement of tumor response to chemotherapy by activation of the asmase/ceramide pathway through timed administration of a short-acting anti-angiogenic agent” (Memorial Sloan-Kettering Cancer Center, priority 2014, dated 2024)",
  "key": {"HCT116 tumors": {"system": "HCT116 tumors", "assay": "Tumor response in vivo, HCT116 tumors", "design": "species or system mice", "description": "(§1) Human HCT-116 colon cancer cells and MCA/129 murine sarcoma cells were maintained in DMEM with 10% fetal bovine serum, with 100 u/ml penicillin and 100 μg/ml streptomycin. Cells were grown as monolayers in 75 cm^2 culture flasks at 37° C. in 10% CO2 humidified incubators. Cells were trypsinized, washed in PBS and diluted in Matrigel/PBS solution (40:60 v/v) for HCT-116 xenografts or in PBS for MCA/129 syngeneic tumor grafts. Cells (3×10^6 for HCT-116 or 1×10^6 for MCA129) were injected subcutaneously into the flanks of mice (Garcia-Barros et al. Science 300, 1155-1159, 2003).\nSCID^asmase+/+ and SCID^asmase−/− mice harboring HCT-116 tumors (50-100 mm^3) were treated with three i.p. injections of 35-50 mg/kg etoposide (Novaplus®), or 15-25 mg/kg paclitaxel (Hospira), or 1-6 mg/kg cisplatin (APP Pharmaceuticals, LLC) in a bi-weekly schedule with or without i.v. DC101 (1600 μg/25 gm mouse), or control IgG. For sarcoma studies, Sv129/Bl6 mice harboring MCA/129 tumors (100-150 mm^3) were treated with three i.p. injections of 240 mg/kg gemcitabine on a bi-weekly schedule with or without i.v. DC-101. Tumor volume, based on caliper measurements (length and width in millimeters), was calculated daily using the following formula: 0.5×length×width^2.\nTumor response to chemotherapy in the colorectal HCT116 xenograft model was evaluated. SCID^asmase+/+ or SCID^asmase−/− mice harboring HCT116 tumors (50-70 mm^3) were treated with paclitaxel (15/20/25 mg/kg i.p.) three times biweekly. […] To test that the ASMase requirement is mediated by the generation of ceramide, SCID^asmase+/+ mice harboring tumors as in FIG. 5A were treated with etoposide (35/35/50 mg/kg i.p.) biweekly in the presence of anti-ceramide or isotype control antibody.\n(§2) To further test the ability of cisplatin to affect endothelial cell apoptosis and tumor response in vivo, effects of cisplatin on tumor growth were evaluated.\nThus, to further explore the notion of endothelial ASMase signaling requirement in response to chemotherapy, DC101 was used in combination with paclitaxel treatment."}, "CRM": {"system": "CRM", "assay": "CRM detection by confocal microscopy in BAEC", "format": "cell-based, bovine", "conditions": "paclitaxel 100 nM", "description": "BAEC were grown on CC2-treated chamber slides (Nalge Nunc International Corp., Naperville, USA) and then exposed to etoposide or paclitaxel with or without pre-incubation with Nystatin (30 μg/ml, Sigma) for 30 min. BAEC were then washed in cold PBS, fixed for 15 min in fresh 2% paraformaldehyde, washed 2× with cold PBS, and blocked with 5% FBS in PBS for 20 min at room temperature. Cells were stained with anti-ceramide MID 15B4 IgM (Alexis Corporation) at 1:50 dilution for 1 hour at room temperature, washed 3× in PBS, and thereafter with Texas Red-conjugated secondary antibody (Jackson Immunoresearch Laboratories, Inc.) at 1:500 dilution for 1 hour at room temperature. Nonspecific fluorescence was excluded using isotype control IgM (BD Biosciences). Cells were washed 3×, stained with DAPI and mounted in 0.1% paraphenylenediamine. Fluorescence was detected using Leica TCS SP2 AOBS 1- and 2-photon laser scanning confocal (DMRXA2 upright stand) microscope coupled with MetaMorph 7.5 (Molecular Devices). Number of CRMs in membranes of endothelial cells was analyzed using MetaMorph 7.5 software that allowed outlining of regions containing CRMs based on two criteria: 1) CRM size (≥500 nm); 2) Intensity of ceramide staining. Mice: asmase^+/+ and asmase^−/− mice, maintained in a SCID background, were propagated using heterozygous breeding pairs and genotyped as previously described (Santana et al. Cell, 86, 189-199, 1996; Grassme et al. Nat Med 9, 322-330 (2003). 6-12 week-old C57BL6/SV129 male mice, purchased from The Jackson Laboratory (Bar Harbor).\nTo test the effect of chemotherapy on ASMase signaling and ceramide production, BAEC were treated with paclitaxel (100 nM) and ASMase activity was determined by radioenzymatic assay (Rotolo et al, infra) using [^14C-methylcholine] sphingomyelin (Amersham) as substrate (FIG. 1A). Induction of ASMase activity was observed within 5 minutes after treatment, and the activation continued for 30 minutes. Ceramide generation was monitored using the diacylglycerol kinase assay (Stancevic et al. PLoS ONE 8, e69025, 2013). […]"}, "[1]": {"system": "HCT116 human colorectal cancer xenografts", "assay": "Endothelial apoptosis in vivo (TUNEL/MECA-32) in HCT116 xenografts", "design": "species or system mice", "conditions": "single dose paclitaxel 25 mg/kg, 4 hours", "description": "as §1\nTo evaluate acute endothelial apoptosis, tumors were grown in mice and treated with drugs as above. After the first treatment, tumors were harvested at specified times, placed into formalin overnight and paraffin-embedded the next day. Paraffin-embedded sections (5 μm) were co-stained for apoptotic endothelium using TUNEL and the endothelial-specific monoclonal antibody MECA-32 (Developmental Studies Hybridoma Bank, developed under the auspices of the NICHD and maintained by The University of Iowa, IA). […]\nas §2"}},
  "data": [
    {"smiles": "N.N.[Cl][Pt][Cl]", "note": "[cisplatin]", "values": [
      {"measurement": "Tumor growth delay", "setting": "HCT116 tumors; cisplatin 3×6 mg/kg", "value": "did not induce significant HCT116 tumor growth delay"}
    ]},
    {"smiles": "CC(=O)O[C@H]1C(=O)[C@@]2(C)[C@H]([C@H](OC(=O)c3ccccc3)[C@]3(O)C[C@H](OC(=O)[C@H](O)[C@@H](NC(=O)c4ccccc4)c4ccccc4)C(C)=C1C3(C)C)[C@]1(OC(C)=O)CO[C@@H]1C[C@@H]2O", "note": "[paclitaxel]", "values": [
      {"measurement": "CRM formation peak time", "setting": "CRM", "value": 5, "unit": "min"},
      {"measurement": "CRM formation remained elevated for", "setting": "CRM", "value": 30, "unit": "min"},
      {"measurement": "Tumor response, agent alone", "setting": "HCT116 tumors; SCID asmase+/+, 3×15 mg/kg paclitaxel or 1600 μg DC101 alone", "value": "slightly affected"},
      {"measurement": "Complete tumor response after", "setting": "HCT116 tumors; SCID asmase+/+, paclitaxel 15/20/25 mg/kg i.p. three times biweekly", "value": "10 ± 1", "unit": "days"},
      {"measurement": "Tumor response", "setting": "HCT116 tumors; SCID asmase−/−, paclitaxel 15/20/25 mg/kg i.p. three times biweekly", "value": "no significant tumor response"},
      {"measurement": "Tumor endothelial apoptosis", "setting": "[1]; SCID asmase+/+", "value": "robust endothelial apoptosis"},
      {"measurement": "Tumor endothelial apoptosis", "setting": "[1]; SCID asmase−/−", "value": "resistant to chemotherapy-induced endothelial cell apoptosis"}
    ]}
  ]
}
